# Measured values: patent US10213409B2, “Substituted benzofurans, benzothiophenes, benzoselenophenes and indoles and their use as tubulin polymerisation inhibitors” (Bionomics Limited, priority 2006, dated 2019)
# Experiments:
# Assay type in all cases: cell-based
# [1] = system: Human umbilical vein endothelial cells (HUVECs), normal quiescent type (Norm); assay: Proliferation Assay - Quiescent Endothelium (MTT); conditions: HUVEC
# Protocol: Proliferation Assay—Quiescent Endothelium:
# (§1) Cells were cultured overnight at 37° C. 5% CO2. Medium was subsequently replaced with fresh medium including the compound or negative control. Cells were cultured for a period of 48 hrs. An MTT assay was performed to measure changes in cell numbers. Briefly, 20 μl of MTT reagent was added to cells containing 100 μl of EBM2+0.5% FBS and incubated at 37° C. for 2 hours.
# [2] = system: Human umbilical vein endothelial cells (HUVECs), tumour type activated (Tum); assay: Proliferation Assay - Activated Endothelium (MTT); conditions: for IC50: Homo sapiens, HUVEC, tumour type activated endothelial cells
# Protocol: Proliferation Assay—Activated Endothelium:
# as §1, with “EGM2” for “EBM2+0.5% FBS”
# MCF-7 = assay: Growth inhibition, Sulforhodamine B (SRB) or Systmex cell counting (CC) assay, MCF-7; conditions: Homo sapiens, MCF7, concentration required to inhibit net cell growth by 50%, read-out: Cancer cell line IC50
# MDA-MB-231 = assay: Growth inhibition, Sulforhodamine B (SRB) or Systmex cell counting (CC) assay, MDA-MB-231; conditions: Homo sapiens; MDA-MB-231 (footnote b); concentration required to inhibit net cell growth by 50%; read-out: Cancer cell line IC50
IC50 (MCF-7),IC50 (MDA-MB-231),Compound,IC50 [1],IC50 [2],"potency towards activated (tumour) versus quiescent (normal) endothelial cells ([2]; comparison of activated and quiescent HUVEC assays, FIGS. 1 and 2, Table 1)"
–,1 to 10 nM,"COc1cc(C(=O)c2c(N(C)C)oc3c(O)c(OC)ccc23)cc(OC)c1OC [Example 22, (2-N,N′-Dimethylamino-7-hydroxy-6-methoxy-benzofuran-3-yl)-(3,4,5-trimethoxy-phenyl)-methanone]",1 to 10 nM,1 to 10 nM,–
–,–,"COc1cc(C(=O)c2c(C)[nH]c3c(O)c(OC)ccc23)cc(OC)c1O [Example 40, 3-(3,5-Dimethoxy-4-hydroxybenzoyl)-7-hydroxy-6-methoxy-2-methyl-1H-indole]",10 to 100 nM,1 to 10 nM,–
–,1 to 10 nM,"COc1cc(C(=O)c2c(Nc3cccnc3)oc3c(O)c(OC)ccc23)cc(OC)c1OC [Example 25, [7-Hydroxy-6-methoxy-2-(pyridin-3-ylamino)-benzofuran-3-yl]-(3,4,5-trimethoxy-phenyl)-methanone]",1 to 10 nM,1 to 10 nM,–
1.2 nM,–,"COc1cc(C(=O)c2c(SC)oc3c(O)c(OC)ccc23)cc(OC)c1OC [Example 9, 7-Hydroxy-6-methoxy-2-methylsulfanyl-3-(3,4,5-trimethoxybenzoyl)benzofuran]",1 to 10 nM,0.1 to 1 nM,higher potency towards tumour endothelial cells (activated) over normal endothelial cells (quiescent)
–,–,"COc1cc(C(=O)c2c(CN(C)C)oc3c(O)c(OC)ccc23)cc(OC)c1OC [Example 34, 2-Dimethylaminomethylene-3-(3,4,5-tri-methoxy-benzoyl)-6-methoxy-7-hydroxy-benzo[b]furan]",1 to 10 nM,1 to 10 nM,–
–,10 to 100 nM,COc1cc(C(=O)c2c(NCCN(C)C)oc3c(O)c(OC)ccc23)cc(OC)c1OC [Example 21],10 to 100 nM,10 to 100 nM,–
8 nM,–,CCC/C=C/c1oc2c(O)c(OC)ccc2c1C(=O)c1cc(OC)c(OC)c(OC)c1 [Example 13],1 to 10 nM,1 to 10 nM,–
575 nM,–,"COc1ccc2c(C(=O)c3cc(OC)c(OC)c(OC)c3)c(O)oc2c1 [Example 30, (2-Hydroxy-6-methoxybenzofuran-3-yl)(3,4,5-trimethoxyphenyl)methanone, reference compound]",100 to 1000 nM,100 to 1000 nM,–
500 nM,–,"COc1ccc2c(C(=O)c3cc(OC)c(OC)c(OC)c3)c(Br)oc2c1 [Example 3, 2-Bromo-3-(3,4,5-trimethoxybenzoyl)-6-methoxybenzofuran, reference compound]",100 to 1000 nM,100 to 1000 nM,–
35 nM,–,"COc1cc(OC)cc(C(=O)c2coc3c(O)c(OC)ccc23)c1 [Example 52, 3-(3,5-Dimethoxybenzoyl)-7-hydroxy-6-methoxybenzo[b]furan]",100 to 1000 nM,100 to 1000 nM,–
45 nM,–,"COc1cc(C(=O)c2coc3c(O)c(OC)ccc23)cc(OC)c1OC [Example 6, 3-(3,4,5-Trimethoxybenzoyl)-6-methoxy-7-hydroxybenzofuran]",10 to 100 nM,10 to 100 nM,–
–,–,"COc1cc(C(=O)c2c(CN3CCN(C)CC3)oc3c(O)c(OC)ccc23)cc(OC)c1OC [Example 37, 2-(4-Methylpiperazin-1-yl)methyl-3-(3,4,5-tri-methoxy-benzoyl)-6-methoxy-7-hydroxy-benzo[b]furan]",10 to 100 nM,10 to 100 nM,–
–,–,"COc1cc(C(=O)c2c(C)oc3c(O)c(OC)ccc23)cc(OC)c1O [Example 46, 3-(4-Hydroxy-3,5-di-methoxy-benzoyl)-7-hydroxy-6-methoxy-2-Methyl-benzo[b]furan]",100 to 1000 nM,10 to 100 nM,–
–,–,"COc1cc(C(=O)c2c(Cn3ccnc3)oc3c(O)c(OC)ccc23)cc(OC)c1OC [Example 35, 2-(1H-Imidazol-1-yl)methyl-3-(3,4,5-trimethoxybenzoyl)-6-methoxy-7-hydroxy-benzo[b]furan]",1 to 10 nM,1 to 10 nM,–
2 nM,–,"COC(=O)/C=C/c1oc2c(O)c(OC)ccc2c1C(=O)c1cc(OC)c(OC)c(OC)c1 [Example 14, (E)-3-[7-Hydroxy-6-methoxy-3-(3,4,5-trimethoxy-benzoyl)-benzofuran-2-yl]-acrylic acid methyl ester]",1 to 10 nM,0.1 to 1 nM,–
260 nM,–,"COc1cc(C(=O)c2c(NCC(=O)O)oc3c(O)c(OC)ccc23)cc(OC)c1OC [Example 23, [7-hydroxy-6-methoxy-3(3,4,5-trimethoxy-benzoyl)-benzofuran-2-ylamino]acetic acid]",100 to 1000 nM,100 to 1000 nM,–
–,–,"COc1cc(C(=O)c2c(NCCS(N)(=O)=O)oc3c(O)c(OC)ccc23)cc(OC)c1OC [Example 45, 2-N-(Aminoethanesulphonamide)-3-(3,4,5-trimethoxybenzoyl)-6-methoxy-7-hydroxy-benzo[b]furan]",1 to 10 nM,1 to 10 nM,–
–,–,"COc1cc(C(=O)c2c(C)sc3c(O)c(OC)ccc23)cc(OC)c1OC [Example 42, 7-Hydroxy-6-methoxy-2-methyl-3-(3,4,5-trimethoxybenzoyl)benzo[b]thiophene]",1 to 10 nM,0.1 to 1 nM,–
–,–,"COc1ccc2c(C(=O)c3cc(OC)c(OC)c(OC)c3)c[nH]c2c1 [Comparator H, reference compound]",1 to 10 nM,1 to 10 nM,–
–,–,"COc1cc(C(=O)c2c(NCCNC(=N)N)oc3c(O)c(OC)ccc23)cc(OC)c1OC [Example 28, 1-[2-(7-hydroxy-6-methoxy-3-(3,4,5-trimethoxybenzoyl)benzofuran-2-ylamino)ethyl]guanidine]",10 to 100 nM,100 to 1000 nM,–
35 nM,–,"COc1cc(C(=O)c2c(NN)oc3c(O)c(OC)ccc23)cc(OC)c1OC [Example 10, 2-Hydrazino-7-hydroxy-6-methoxy-3-(3,4,5-trimethoxybenzoyl)-benzofuran]",10 to 100 nM,1 to 10 nM,–
–,–,"COC(=O)CN(C)Cc1oc2c(O)c(OC)ccc2c1C(=O)c1cc(OC)c(OC)c(OC)c1 [Example 43, 2-[(N-Methyl-2-amino-aceticacid methyl ester)-methenyl)-3-(3,4,5-trimethoxybenzoyl)-6-methoxy-7-hydroxy-benzo[b]furan]",1 to 10 nM,1 to 10 nM,–
800 nM,–,"COc1ccc2c(C(=O)c3c(F)c(F)c(F)c(F)c3F)coc2c1O [Example 53, 3-(Pentafluorobenzoyl)-6-methoxy-7-hydroxybenzo[b]furan]",> 1000 nM,> 1000 nM,–
–,–,"COc1cc(C(=O)c2c(CN(C)CC(=O)O)oc3c(O)c(OC)ccc23)cc(OC)c1OC [Example 44, 2-[(N-Methyl-2-amino-aceticacid)-methenyl)-3-(3,4,5-trimethoxybenzoyl)-6-methoxy-7-hydroxy-benzo[b]furan]",10 to 100 nM,10 to 100 nM,–
–,–,"COc1cc(C(=O)c2c(Cn3nnc(N)n3)oc3c(O)c(OC)ccc23)cc(OC)c1OC [Example 36, 2-(5-amino-2H-tetrazol-2-yl)-methyl-3-(3,4,5-tri-methoxy-benzoyl)-6-methoxy-7-hydroxy-benzo[b]furan]",1 to 10 nM,1 to 10 nM,–
–,–,"COc1cc(C(=O)c2c(NCCNC(=O)OC(C)(C)C)oc3c(O)c(OC)ccc23)cc(OC)c1OC [Example 26, tert-Butyl-2-(7-hydroxy-6-methoxy-3-(3,4,5-trimethoxybenzoyl)benzofuran-2-ylamino)ethyl carbamate]",1 to 10 nM,1 to 10 nM,–
–,–,"COc1ccc2c(C(=O)c3cc(OC)c(OC)c(OC)c3)c(C)sc2c1 [Example 51, 6-Methoxy-2-methyl-3-(3,4,5-trimethoxybenzoyl)benzo[b]thiophene, reference compound]",1 to 10 nM,1 to 10 nM,–
–,–,"COc1cc(C(=O)c2c(N)oc3c(O)c(OC)ccc23)cc(OC)c1OC [Example 19, (2-Amino-7-hydroxy-6-methoxy-benzofuran-3-yl)-(3,4,5-trimethoxyphenyl)-methanone]",1 to 10 nM,1 to 10 nM,–
–,–,"COc1cc(C(=O)c2c(C)[nH]c3c(O)c(OC)ccc23)cc(OC)c1OC [Example 39, 7-Hydroxy-6-methoxy-2-methyl-3-(3,4,5-trimethoxybenzoyl)-1H-indole]",0.1 to 1 nM,0.01 to 0.1 nM,–

Compound,IC50 (MCF-7),IC50 (MDA-MB-231),IC50 [1],IC50 [2],"potency towards activated (tumour) versus quiescent (normal) endothelial cells ([2]; comparison of activated and quiescent HUVEC assays, FIGS. 1 and 2, Table 1)"
"COc1ccc2c(C(=O)c3cc(OC)c(OC)c(OC)c3)coc2c1 [Example 5, 3-(3,4,5-Trimethoxybenzoyl)-6-methoxy-benzofuran, reference compound]",55 nM,–,10 to 100 nM,10 to 100 nM,–
"COc1ccc(/C=C\c2cc(OC)c(OC)c(OC)c2)cc1OP(=O)(O)O [Comparator B, reference compound]",5 nM,–,1 to 10 nM,1 to 10 nM,–
"CNc1oc2c(O)c(OC)ccc2c1C(=O)c1cc(OC)c(OC)c(OC)c1 [Example 18, 2-(N-Methylamino)-7-hydroxy-3-(3,4,5-trimethoxybenzoyl)-6-methoxy-benzofuran]",3.5 nM,–,0.1 to 1 nM,1 to 10 nM,–
"C#Cc1oc2c(O)c(OC)ccc2c1C(=O)c1cc(OC)c(OC)c(OC)c1 [Example 8, 2-Ethynyl-7-hydroxy-6-methoxy-3-(3,4,5-trimethoxybenzoyl)-benzofuran]",3.3 nM,–,1 to 10 nM,1 to 10 nM,–
"COc1ccc(/C=C\c2cc(OC)c(OC)c(OC)c2)cc1O [Comparator A, reference compound]",5 nM,–,1 to 10 nM,1 to 10 nM,–
